Values joined by “and” are separate entries in the source; they are usually repeats but may differ in a detail not shown here. Equal entries are not always repeated.
Key:
[1] = test system: hyperlipidemia patients having history of stroke (onset/recurrence of stroke); experiment: DELIS (Japan EPA Lipid Intervention Study) partial analysis: recurrence of stroke over 5 years in patients with history of stroke; format: in vivo, human; set-up: Inhibition Rate (%): concentration or dose not given beside the values; settings: for Incidence rate (%) of EPA-E group: TG less than 400 mg/dL; for Inhibition Rate (%): vs control group; for reduction of the incidence rate of stroke (in words): time course 1 to 5 years
Procedure: This trial is a partial analysis of the results obtained in DELIS (Japan EPA Lipid Intervention Study), a large scale clinical trial of high purity EPA preparation which was presented at the American College of Cardiology 2005 Annual Meeting.
Specifically, of the 18,645 subject patients in the DELIS trial (hyperlipidemia patients with serum T-Cho concentration of 250 mg/dl or more, at ages of 40 to 75 for male and […] to 75 for female; the patients within six months from the onset of stroke were excluded in order to exclude patients in the acute period of the stroke from the trial subjects) (EPA-E group (9,326 cases) and control group (9,319 cases)), 485 subjects from the EPA-E group and 457 subjects from the control group, having history of stroke (cerebral thrombosis, cerebral embolism, intracerebral hemorrhage, subarachnoid hemorrhage, and transient ischemic attack) were observed and analyzed for the recurrence of stroke during the period of 5 years from the start of the administration. Further, for the cases where serum TG/HDL-C ratio was known (but excluding the cases where TG value was 400 mg/dl or more), results from the subjects divided into three groups based on the serum TG/HDL-C ratio at the time of registration were also analyzed. The EPA-E group was orally administered with Epadel (Mochida Pharmaceutical Co., Ltd.) typically at an adult dose of 600 mg per administration and 3 times a day immediately after the meal. However, in the cases having abnormal serum TG, the dose could be increased up to 900 mg per administration and 3 times a day, depending on the abnormality. In both groups, pravastatin sodium (Mevalotin™ tablets and fine granules, Sankyo Co., Ltd.), simvastatin (Lipovas™ tablets, Banyu Pharmaceutical Co., Ltd.), or atorvastatin calcium hydrate (Lipitor™ tablets, Astellas Pharma Inc. and Pfizer) was used as a base drug (basal treatment), which was orally administered according to a predetermined dosage regimen.
The number of onset (recurrence) of stroke, the incidence rate (%), and the odds ratio for the EPA-E group in relation to the control group during the observation period of 5 years are shown in Table 1. The odds ratio was calculated by the equation of (incidence rate of the EPA-E group)/(incidence rate of the control group), and the inhibition rate of onset of stroke was calculated by the equation of {((incidence rate of stroke for the control group)−(incidence rate of stroke for the EPA-E group))/(incidence rate of stroke for the control group)}×100.
Further, the data described above were statistically analyzed by taking biases in the background (smoking habit, diabetes, etc.) between the groups into consideration.
Similarly, for the cases where serum TG/HDL-C ratio was known (but excluding the cases where TG value was 400 mg/dl or more), each of the three groups of subjects, which are divided based on the serum TG/HDL-C ratio at the time of registration, was analyzed on the number of onset (recurrence) of stroke, the incidence rate (%), and the odds ratio for the EPA-E group in relation to the control group during the observation period of 5 years, as shown in Table 4. The odds ratio was calculated by the equation of (incidence rate of the EPA-E group)/(incidence rate of the control group), and the inhibition rate of onset of stroke was calculated by the equation of {((incidence rate of stroke for the control group)−(incidence rate of stroke for the EPA-E group))/(incidence rate of stroke for the control group)}×100.

[2] = test system: hyperlipidemia patients (cardiac events); settings: use in combination with statin; large scale clinical trial; cited from earlier work
[3] = after 1 year, serum TG/HDL-C ratio 3.75 or more
[4] = after 2 years, serum TG/HDL-C ratio 3.75 or more
[5] = after 3 years, serum TG/HDL-C ratio 3.75 or more
[6] = after 4 years, serum TG/HDL-C ratio 3.75 or more
[7] = after 5 years, serum TG/HDL-C ratio 3.75 or more
[8] = all patients with history of stroke, 5 years
[9] = cerebral thrombosis, patients with history of stroke, 5 years
[10] = serum TG/HDL-C ratio at registration less than 1, TG less than 400 mg/dl, 5 years
[11] = total of infarction type diseases, patients with history of stroke, 5 years

CC/C=C\C/C=C\C/C=C\C/C=C\C/C=C\CCCC(=O)OCC [EPA-E, ethyl icosapentate]
Incidence rate (%) in EPA-E group ([1]; after 1 year, all patients with history of stroke, analyzed taking background biases into consideration): 2.1% | Incidence rate (%) of EPA-E group [1, 3]: 1.5% | Inhibition Rate (%) [1, 3]: 17% | Incidence rate (%) in EPA-E group ([1]; after 2 years, all patients with history of stroke, bias-adjusted analysis): 3.6% | Inhibition Rate (%) ([1]; after 2 years, all patients with history of stroke): 8% | Incidence rate (%) of EPA-E group [1, 4]: 2.9% | Inhibition Rate (%) [1, 4]: 53% | Incidence rate (%) in EPA-E group ([1]; after 3 years, all patients with history of stroke, bias-adjusted analysis): 4.7% | Inhibition Rate (%) ([1]; after 3 years, all patients with history of stroke): 16% | Incidence rate (%) of EPA-E group [1, 5]: 4.4% | Inhibition Rate (%) [1, 5]: 29% | Incidence rate (%) in EPA-E group ([1]; after 4 years, all patients with history of stroke, bias-adjusted analysis): 5.7% | Inhibition Rate (%) ([1]; after 4 years, all patients with history of stroke): 35% | Incidence rate (%) of EPA-E group [1, 6]: 5.2% | Inhibition Rate (%) [1, 6]: 55% | Incidence rate (%) in EPA-E group ([1]; after 5 years, all patients with history of stroke, bias-adjusted analysis): 7.4% | Inhibition Rate (%) ([1]; after 5 years, all patients with history of stroke): 37% | Incidence rate (%) of EPA-E group [1, 7]: 7.4% | Inhibition Rate (%) [1, 7]: 48% | Odds ratio (incidence rate of EPA-E group/incidence rate of control group) [1, 8]: 0.648 | reduction of incidence rate of stroke compared with the control group [1, 8]: about 35% | Stroke cases/All cases ([1]; all patients with history of stroke, observation period of 5 years, Epadel 600 mg 3 times a day (up to 900 mg) plus statin base drug): 33/485 | reduction of the incidence rate of stroke (in words) ([1]; all patients with history of stroke): significant at 3 years or later after the start of the administration | Stroke cases/All cases, cerebral thrombosis [1, 9]: 13/485 | incidence rate, cerebral thrombosis [1, 9]: (2.9%) | number of cases and incidence rates of hemorrhage type diseases vs control group ([1]; hemorrhage type diseases, patients with history of stroke): lower | reduction of the incidence rate of stroke (in words) ([1]; patients with serum TG/HDL-C ratio 3.75 or more): significant at 3 years or later after the start of the administration | reduction of incidence rate of stroke compared to the control group ([1]; serum TG/HDL-C ratio 1 or more but less than 3.75, 5 years): about 36% | reduction of incidence rate of stroke compared to the control group ([1]; serum TG/HDL-C ratio 3.75 or more, 5 years): about 48% | Odds ratio (incidence rate of EPA-E group/incidence rate of control group) ([1]; serum TG/HDL-C ratio at registration 1 to 3.75, 5 years): 0.640 | Stroke cases/All cases ([1]; serum TG/HDL-C ratio at registration 1 to 3.75, TG less than 400 mg/dl, 5 years): 14/244 | Odds ratio (incidence rate of EPA-E group/incidence rate of control group) ([1]; serum TG/HDL-C ratio at registration 3.75 or more, 5 years): 0.519 | Stroke cases/All cases ([1]; serum TG/HDL-C ratio at registration 3.75 or more, TG less than 400 mg/dl, 5 years): 10/135 | Stroke cases/All cases [1, 10]: no onset of stroke was observed and 0/18 | incidence rate of stroke [1, 10]: (0.0) % | Stroke cases/All cases, total of infarctions [1, 11]: 28/485 | incidence rate, total of infarctions [1, 11]: (6.20) % | inhibiting cardiac events [2]: effective

From patent publication US9233093B2, “Composition and/or method for preventing recurrence of stroke” (MOCHIDA PHARMACEUTICALS CO., LTD., priority 2006, dated 2016)
